Assays:
[1] = system: cholesterol content of the blood serum; experiment: Effect against hyperlipidemia (Demonstration 1): cholesterol content of blood serum; format: in vivo, mice; details: for Reduction Rate of Cholesterol in Blood Serum: mice, oral
Description: (§1) Six mice were bred with high cholesterol-cholic acid feeds for 7 days so as to induce hyperlipidemia; one half of the total dose of each compound (I) as set forth in Table 1 was orally administered at the sixth day and the other half was orally administered at the seventh day. After starving the mice for one night, the cholesterol content of the blood serum of the respective mice was determined. It was judged that the tested compound had the desired activity (of reducing fat content of blood) when the cholesterol content of the blood serum was decreased by 15% or more as compared to that of the mice of the control group.

[2] = system: lipoproteins precipitated by heparin (corresponding to the fractions of LDL and VLDL); experiment: Effect against hyperlipidemia (Demonstration 2): lipoproteins precipitated by heparin (HPL, LDL and VLDL fractions) in blood serum; format: in vivo, mice; details: for Decrease of HPL / HPL/Cholesterol ratio: mice, oral; for HPL/Cholesterol ratio: criterion not more than 0.92
Description: as §1, with “group. Similar experiments were conducted as in Example 2, and it was judged that the tested compound had the desired activity (of reducing fat content in blood) when the content of lipoproteins precipitated by heparin (corresponding to the fractions of LDL and VLDL) in the blood serum of the tested group was decreased by 20% or more as compared to that of the mice of control group. Decrease of atheromic β-LDL or increase of HDL could be estimated when the ratio of lipoproteins precipitated by heparin to cholesterol (HPL/cholesterol) was not more than 0.92.” for “group.”

blood platelets = experiment: Anticoagulating function for inhibiting coagulation of blood platelets (aggregometer, PRP, arachidonic acid); format: cell-based, rabbit (White Japanese native species); details: for Response (inhibition of coagulation of blood platelets): in vitro, arachidonic acid 50 mcg/ml, rabbit PRP, 37° C., 2 minutes
Description: White Japanese native species male rabbits each having a body weight of from 2.5 to 4.0 kg were used. The state of health of the rabbits was checked by visual examination for such as diarrhea and scabies in the ears, and the number of blood platelets and the hematocrit value of the individual rabbits were determined using the blood taken from the auricular vein of the individual rabbits. Rabbits each having a number of blood platelets of from 30×10^4 to 50×10^4 […] and a hematocrit value of from 30 to 40% were selected and the thus selected rabbits were fed for a pre-breeding period of one week, and then the number of blood platelets and the hematocrit value of the thus bred rabbits were determined again.
Using an injection tube treated with silicone, blood was taken from the auricular artery so that the ratio of blood to a 3.8% sodium citrate solution was 9 to 1 by volume, and the content of the tube was subjected to centrifugal separation at 100 to 140 g for 10 minutes. The supernatant was separated as platelet rich plasma (PRP), and the lower phase was further subjected to centrifugal separation at 450 g or 300 g for 10 minutes to obtain a platelet poor plasma (PPP). After subjecting the PRP to centrifugal separation at 800 g for 10 minutes, precipitated blood platelets were rinsed one time with a 5 m MEDTA deprived of Ca^2+ and MG^2+ and Hepes-Tyrode buffer (pH 7.4), and then suspended in Hepes-Tyrode buffer (pH 7.4) to obtain rinsed blood platelets. In the coagulation experiment, the number of blood platelets in PRP was directly counted by the Brecher-Cronkite method to control the same within the range of from 50×10^4 to 70×10^4 /mm^3.
Using an aggregometer, PRP was added with each of specimen drugs, followed by incubation at 37° C. for a predetermined time period (2 minutes), and an aggregation provoker (arachidonic acid, 50 mcg/ml) was added and then subjected to measurement.
The control drug used was Aspirin.

Test on acute toxicity = format: in vivo, mice; details: for acute toxicity, changes observed: mice
Description: The compound (I) was administered to mice in an amount of 300 mg/kg orally or abdominally.

metastasis of cancer = details: experiments using animals; cited from earlier work

## COc1ccc(-c2nc3sc4ccccc4n3c(=O)c2-c2ccccc2)cc1 [Compound (I), 2-(p-methoxyphenyl)-3-phenylpyrimido[2,1-b]benzothiazole-4(4H)-one]
[1]; from Table 1, fraction of D-thyroxine efficacy
  pharmaceutical efficacy relative to control agent D-thyroxine: about 2/5
[1]; 10 mg/kg
  Reduction Rate of Cholesterol in Blood Serum: 11%
[1]; 25 mg/kg
  Reduction Rate of Cholesterol in Blood Serum: 16%
[2]; from Table 2, fraction of D-thiroxicine efficacy
  pharmaceutical efficacy relative to control agent D-thiroxicine: about 2/5
[2]; 10 mg/kg
  Decrease of HPL: 17%
[2]; 25 mg/kg
  Decrease of HPL: 23%
  HPL/Cholesterol ratio: 0.92
Blood platelets; from Table 3
  efficacy relative to control drug Aspirin: 2.5 times
Blood platelets; 1 γ (μg/ml)
  Response (inhibition of coagulation of blood platelets): 100
Test on acute toxicity; abdominal, 200 mg/kg
  acute toxicity, changes observed: No changes were observed
Test on acute toxicity; oral, 300 mg/kg
  acute toxicity, changes observed: No changes were observed
Test on acute toxicity; mouse, in vivo, 100 mg/kg
  toxicity on successive administration, changes observed: no substantial change was observed

## CC(=O)Oc1ccccc1C(=O)O [Aspirin, reference compound]
Blood platelets; 2.5 γ (μg/ml)
  Response (inhibition of coagulation of blood platelets): 100
Metastasis of cancer
  effect of inhibiting metastasis of cancer: have the effect of inhibiting metastasis of cancer

## OCCN(CCO)c1nc(N2CCCCC2)c2nc(N(CCO)CCO)nc(N3CCCCC3)c2n1 [dipyridamol]
Metastasis of cancer
  effect of inhibiting metastasis of cancer: have the effect of inhibiting metastasis of cancer

## N[C@H](Cc1cc(I)c(Oc2cc(I)c(O)c(I)c2)c(I)c1)C(=O)O [D-thyroxine, reference compound]
[1]; 10 mg/kg
  Reduction Rate of Cholesterol in Blood Serum: 30%
[2]; 10 mg/kg
  Decrease of HPL: 35%
  HPL/Cholesterol ratio: 0.93

## Clc1ccccc1CN1CCc2sccc2C1 [ticlopidine]
Metastasis of cancer
  effect of inhibiting metastasis of cancer: have the effect of inhibiting metastasis of cancer

From patent publication US4788200A, “Method and composition for treating arteriosclerosis” (MECT Corporation, priority 1986, dated 1988)
